Measurements: patent US20080221114A1, “2-(Cyclic Aminocarbonyl) Indoline Derivative and Medicinal Composition Containing the Same” (priority 2005, published 2008)
pIC50: −log10 of the molar value.

Target: T1, mitochondrial benzodiazepine receptor (MBR) (Rattus norvegicus, UniProt P16257)
T1 construct: from tissue; host or cells: kidney of male Wistar rats (crude membrane preparation)
Assay: Binding assay of mitochondrial benzodiazepine receptor (MBR), [3H]4'-chlorodiazepam (Ro5-4864), rat kidney membrane-preparation
Settings: rat kidney membranes, [3H]4'-chlorodiazepam 0.5 nM, 0° C. for 150 minutes
Method: The binding assay of central-type benzodiazepine receptor (CBR) and the preparation of receptor membrane-preparation were carried out according to the partially modified method of Braestrup, C. et al. [see; Br. J. Psychiatry, 133, 249-260 (1978)] with a minor modification; the binding assay of mitochondrial benzodiazepine receptor (MBR) and the preparation of receptor membrane-preparation were carried out according to the method of Schoemaker, H [see; J. Pharmacol. Exp. Ther., 225, 61-69 (1983)] with a minor modification.
CBR and MBR membrane-preparations were prepared from forebrain (CBR) and kidney (MBR) of male Wistar strain rats according to the following procedure, respectively.
To the forebrain of rat, 20 volumes of ice-cold 0.32 M sucrose solution to wet-weight of the tissue (1:20, wet-weight/vol) was added and homogenized, and then the homogenate was centrifuged at 900×g for 10 minutes. The supernatant was centrifuged at 11,500×g for 20 minutes, a buffer I for the binding assay (50 mM Tris-hydrochloric acid buffer, pH 7.5) was added to the resultant precipitate, and the mixture was homogenized, and then it was centrifuged at 30,000×g for 10 minutes. The resulting precipitate was washed 3 times according to the same operation, suspended in the buffer I (1 g of wet-weight of tissue/10 ml) and used as a CBR membrane-preparation for the binding assay. The CBR membrane-preparation was stored at −80° C. until use, and on the day of the assay, it was thawed and suspended in the buffer for use. On the other hand, kidney of rat was homogenized in 20 volumes of ice-cold buffer II for the binding assay to wet-weight of the tissue (1:20, wet-weight/vol) (50 mM sodium phosphate-potassium phosphate buffer solution containing 100 mM sodium chloride, pH 7.4), and then filtrated through 4 layers of gauze, and the filtrate was centrifuged at 40,000×g for 20 minutes. The resulting precipitate was suspended in the buffer II (1 g of wet-weight of tissue/50 ml) and used as a MBR membrane-preparation for the binding assay.
As a labeled ligand and a non-labeled ligand, [^3H]flunitrazepam (final concentration: 1 nM) and diazepam (final concentration: 20 μM) were used respectively, for the CBR binding assay, and [^3H]4′-chlorodiazepam (Ro5-4864, chemical name: 7-chloro-1,3-dihydro-1-methyl-5-(4-chloro-phenyl)-2H-1,4-[…]) (final concentration: 0.5 nM) and diazepam (final concentration: 50 μM) were used respectively, for the MBR binding assay. The binding assay of CBR was carried out by incubating at 0° C. for 30 minutes, while that of MBR was at 0° C. for 150 minutes.
The receptor binding assay was carried out in the following procedure. The test compound which the concentration was known, a tritium labeled ligand, a receptor membrane-preparation and the buffer I or II for the binding assay were added to a 96-well microplate in the total volume was 0.2 ml, and when the receptor membrane-preparation was added, the reaction started. After the incubation, the labeled ligand binding to the receptor was filtrated through a filter plate (UNI FILTER-96GF/B, PerkinElmer, the U.S.) using a cell harvester (PerkinElmer, the U.S.) to stop the reaction. The filter was immediately washed 6 times with 0.3 ml of the ice-cold buffer [50 mM Tris-hydrochloric acid buffer (pH 7.7)]. After 30 μl of liquid scintillation cocktail (MICROSCINTI 20, PerkinElmer, the U.S.) was added to each well on the dried filter plate, the radioactivity was measured with a TopCount. The specific binding amount was obtained by subtracting the non-specific binding amount which was simultaneously measured in the presence of non-labeled ligand from the total binding amount. The concentration that the test compound could decrease the specific binding amount of the labeled ligand to 50% of the amount (IC50 value) was analyzed using nonlinear least-squares method.
`Cn1nc(N2c3cc(F)ccc3CC2C(=O)N2CCCCCC2)ccc1=O` (stereo not drawn) [Example 158, 6-fluoro-1-(1-methyl-6-oxo-1,6-dihydropyridazin-3-yl)-2-[(1-perhydroazepinyl)carbonyl]indoline] showed a pIC50 of 7.55. Work on `C[C@H]1CCCN(C(=O)[C@@H]2Cc3ccccc3N2c2ccc(=O)n(CC3CCC3)n2)C1` [Example 125] yielded a pIC50 of 8.88. Compound `C[C@H]1CCCN(C(=O)[C@@H]2Cc3ccccc3N2c2ccc3nncn3n2)C1` [Example 154, (S)-2-[[(S)-3-methylpiperidin-1-yl]carbonyl]-1-(1,2,4-triazolo[4,3-b]pyridazin-6-yl)indoline] has a pIC50 of 8.30. Work on `CC1CCCCN(C(=O)[C@@H]2Cc3ccccc3N2c2ccc(=O)n(C)n2)C1` (stereo partly drawn) [Example 150, (S)-1-(1-methyl-6-oxo-1,6-dihydropyridazin-3-yl)-2-[(3-methylperhydroazepin-1-yl)carbonyl]indoline] yielded a pIC50 of 8.27. In the case of `C[C@@H]1C[C@H](C)CN(C(=O)[C@@H]2Cc3ccccc3N2c2cccnc2)C1` [Example 33], the pIC50 was 8.70. `CCC1CCCCN(C(=O)[C@@H]2Cc3ccccc3N2c2ccc(=O)n(C)n2)C1` (stereo partly drawn) [Example 151, (S)-2-[(3-ethylperhydroazepin-1-yl)carbonyl]-1-(1-methyl-6-oxo-1,6-dihydropyridazin-3-yl)indoline] showed a pIC50 of 8.44. Compound `C[C@H]1CCCN(C(=O)C2Cc3c(F)cccc3N2c2ccc(=O)n(C)n2)C1` (single isomer, unassigned) [Example 155a] has a pIC50 of 8.36. In the case of `CCc1ccc2c(c1)C[C@@H](C(=O)N1CCC[C@H](C)C1)N2c1cccnn1` [Example 105, (S)-5-ethyl-2-[(S)-3-methylpiperidin-1-yl]-carbonyl-1-(3-pyridazinyl)indoline], the pIC50 was 7.09. For `CCC(C)n1nc(N2c3ccccc3CC2C(=O)N2CCCC(C)C2)ccc1=O` (stereo not drawn) [Example 76], the pIC50 was 8.52. With `CCC1CCN(C(=O)[C@@H]2Cc3ccccc3N2c2ccc(=O)n(C)n2)C1` (stereo partly drawn) [Example 149, (S)-2-[(3-ethylpyrrolidin-1-yl)carbonyl]-1-(1-methyl-6-oxo-1,6-dihydropyridazin-3-yl)indoline] the pIC50 was 8.27. For `Cn1nc(N2c3ccccc3CC2C(=O)N2CCCC(C(F)(F)F)C2)ccc1=O` (stereo not drawn) [Example 108], the pIC50 was 7.75. Work on `C[C@H]1CCCN(C(=O)[C@@H]2Cc3ccccc3N2c2ccc(=S)n(C)n2)C1` [Example 139, (S)-2-[[(S)-3-methylpiperidin-1-yl]carbonyl]-1-(1-methyl-6-thioxo-1,6-dihydropyridazin-3-yl)indoline] yielded a pIC50 of 8.15. With `CCCC1CCCN(C(=O)[C@@H]2Cc3ccccc3N2c2ccc(=O)n(C)n2)C1` (stereo partly drawn) [Example 147, (S)-1-(1-methyl-6-oxo-1,6-dihydropyridazin-3-yl)-2-[(3-propylpiperidin-1-yl)carbonyl]indoline] the pIC50 was 8.42. With `C[C@H]1CCCN(C(=O)[C@@H]2Cc3ccccc3N2c2ccc(=O)n(CC(=O)c3ccccc3)n2)C1` [Example 124] the pIC50 was 8.62. With `Cn1nc(N2c3ccccc3C[C@H]2C(=O)N2CCCC(C)(C)C2)ccc1=O` [Example 152, (S)-2-[(3,3-dimethylpiperidin-1-yl)carbonyl]-1-(1-methyl-6-oxo-1,6-dihydropyridazin-3-yl)indoline] the pIC50 was 8.14. Work on `C[C@H]1CCCN(C(=O)C2Cc3cc(O)ccc3N2c2ccc(=O)n(C)n2)C1` (stereo partly drawn) [Example 136, 5-hydroxy-1-(1-methyl-6-oxo-1,6-dihydropyridazin-3-yl)-2-[[(S)-3-methylpiperidin-1-yl]carbonyl]indoline] yielded a pIC50 of 7.17. In the case of `C[C@H]1CCCN(C(=O)[C@@H]2Cc3ccccc3N2c2ccc(=O)[nH]n2)C1` [Example 143, (S)-2-[[(S)-3-methylpiperidin-1-yl]carbonyl]-1-(6-oxo-1,6-dihydropyridazin-3-yl)indoline], the pIC50 was 8.06. Compound `C[C@H]1CCCN(C(=O)[C@@H]2Cc3ccccc3N2c2nccs2)C1` [Example 153, (S)-2-[(S)-3-methylpiperidin-1-yl]carbonyl-1-(1,3-thiazol-2-yl)indoline] has a pIC50 of 8.95. `CC1CCN(C(=O)[C@@H]2Cc3ccccc3N2c2ccc(=O)n(C)n2)C1` (stereo partly drawn) [Example 148, (S)-1-(1-methyl-6-oxo-1,6-dihydropyridazin-3-yl)-2-[(3-methylpyrrolidin-1-yl)carbonyl]indoline] showed a pIC50 of 7.35. For `CC1c2ccccc2N(c2ccc(Cl)nn2)C1C(=O)N1CCC[C@H](C)C1` (stereo partly drawn) [Example 140, 1-(6-chloropyridazin-3-yl)-3-methyl-2-[[(S)-3-methylpiperidin-1-yl]carbonyl]indoline], the pIC50 was 8.42. In the case of `Cn1nc(N2c3cccc(F)c3CC2C(=O)N2CCCCCC2)ccc1=O` (stereo not drawn) [Example 156, 4-fluoro-1-(1-methyl-6-oxo-1,6-dihydropyridazin-3-yl)-2-[(1-perhydroazepinyl)carbonyl]indoline], the pIC50 was 8.56. Compound `Cn1nc(N2c3ccccc3C[C@H]2C(=O)N2CCCCCC2)ccc1=O` [Example 118, (S)-1-(1-methyl-6-oxo-1,6-dihydropyridazin-3-yl)-2-[(1-perhydroazepinyl)carbonyl]indoline] has a pIC50 of 8.37. `C[C@H]1CCCN(C(=O)[C@@H]2Cc3ccccc3N2c2ccc(=O)n(C3CCCC3)n2)C1` [Example 126] gave a pIC50 of 8.57. With `CC1CCCN(C(=O)[C@H]2[C@@H](O)c3ccccc3N2c2ccc(=O)n(C)n2)C1` (relative stereo) [Example 159, cis-3-hydroxy-1-(1-methyl-6-oxo-1,6-dihydropyridazin-3-yl)-2-[(3-methylpiperidin-1-yl)carbonyl]-indoline] the pIC50 was 7.21. With `CCC1CCCN(C(=O)[C@@H]2Cc3ccccc3N2c2ccc(=O)n(C)n2)C1` (stereo partly drawn) [Example 146, (S)-2-[(3-ethylpiperidin-1-yl)carbonyl]-1-(1-methyl-6-oxo-1,6-dihydropyridazin-3-yl)indoline] the pIC50 was 8.31. Work on `C[C@H]1CCCN(C(=O)C2Cc3c(F)cccc3N2c2ccc(=O)n(C)n2)C1` (single isomer, unassigned) [Example 155b] yielded a pIC50 of 8.06. `Cn1nc(N2c3ccccc3C[C@H]2C(=O)N2CCCCCCC2)ccc1=O` [Example 119, (S)-1-(1-methyl-6-oxo-1,6-dihydropyridazin-3-yl)-2-[(1-perhydroazocinyl)carbonyl]indoline] showed a pIC50 of 8.40. With `C[C@@H]1C[C@H](C)CN(C(=O)[C@@H]2Cc3ccccc3N2c2ncccc2N)C1` [Example 55, (S)-1-(3-aminopyridin-2-yl)-2-[(cis-3,5-dimethylpiperidin-1-yl)carbonyl]indoline] the pIC50 was 7.26. With `CC1CCCCN1C(=O)[C@@H]1Cc2ccccc2N1c1ccc(=O)n(C)n1` (stereo partly drawn) [Example 145, (S)-1-(1-methyl-6-oxo-1,6-dihydropyridazin-3-yl)-2-[(2-methylpiperidin-1-yl)carbonyl]indoline] the pIC50 was 7.51. For `CC1c2ccccc2N(c2ccc(=O)n(C)n2)C1C(=O)N1CCC[C@H](C)C1` (stereo partly drawn) [Example 141, 3-methyl-1-(1-methyl-6-oxo-1,6-dihydropyridazin-3-yl)-2-[[(S)-3-methylpiperidin-1-yl]carbonyl]indoline], the pIC50 was 7.91.

Test system: not given
Assay: not given
Settings: not given
In the case of `C[C@H]1CCCN(C(=O)[C@@H]2Cc3ccccc3N2c2ccc(=O)n(CC3CCC3)n2)C1` (hydrate or solvate) [Example 125], the melting point was 221 to 223 °C. With `Cn1nc(N2c3ccccc3C[C@H]2C(=O)N2CCCCCCC2)ccc1=O` (hydrate or solvate) [Example 119, (S)-1-(1-methyl-6-oxo-1,6-dihydropyridazin-3-yl)-2-[(1-perhydroazocinyl)carbonyl]indoline] the melting point was 179 to 182 °C. For `Cn1nc(N2c3ccccc3C[C@H]2C(=O)N2CCCCCC2)ccc1=O` (hydrate or solvate) [Example 118, (S)-1-(1-methyl-6-oxo-1,6-dihydropyridazin-3-yl)-2-[(1-perhydroazepinyl)carbonyl]indoline], the melting point was 198 to 199 °C.
